Measured values from patent publication US20060069132A1, “Azolecarboxamide herbicides” (priority 2004, published 2006).

Legend:
giant foxtail (SETFA) = test: Test J Compounds 2 and 6 alone and in combination with other herbicides, foliage spray; assay type: in vivo, Setaria faberi; design: key: 0 = no effect, 100 = complete control; conditions: applied alone
Source text: (§1) Seeds of test plants consisting of barnyardgrass (ECHCG; Echinochloa crus-galli (L.) Beauv.), blackgrass (ALOMY; Alopecurus myosuroides Huds.), Surinam grass (BRADC; Urochloa decumbens (Staph) R. D. Webster, previously named Brachiaria decumbens Stapf), cocklebur (XANST, Xanthium strumarium L.), corn (ZEAMD, Zea mays L. cv. ‘Pioneer 33G26’), large crabgrass (DIGSA, Digitaria sanguinalis (L.) Scop.), giant foxtail (SETFA, Setaria faberi Herrm.), lambsquarters (CHEAL, Chenopodium album L.), morningglory (IPOCO, Ipomoea coccinea L.), pigweed (AMARE, Amaranthus retroflexus L.), velvetleaf (ABUTH, Abutilon theophrasti Medik.) wheat (TRZAS, Triticum aestivum L. cv. ‘Recital’) and wild oat (AVEFA, Avena fatua L.) were planted in Redi-Earth® planting medium (Scotts Company, 14111 Scottslawn Road, Marysville, Ohio 43041) comprising spaghnum peat moss and vermiculite. Seeds of small-seeded species were planted about 1 cm deep; larger seeds were planted about 2.5 cm deep. Plants were grown in a greenhouse using supplemental lighting to maintain a photoperiod of about 14 hours; daytime and nighttime temperatures were about 24-30° C. and 22-25° C., respectively. Balanced fertilizer was applied through the watering system. […] Also listed in Table J are the expected effects for the mixtures calculated using Colby's Equation.

morningglory (IPOCO) = test: as above; assay type: in vivo, Ipomoea coccinea; design: key: 0 = no effect, 100 = complete control; conditions: applied alone
Source text: as §1

Surinam grass (BRADC) = test: as above; assay type: in vivo, Urochloa decumbens; design: key to BRADC Obsd.: 0 = no effect, 100 = complete control; conditions: for BRADC Obsd.: applied alone; for observed effect of mixture compared with additive effect expected from Colby's Equation: Surinam grass, foliage spray, 15 days after treatment
Source text: Colby's Equation was used to calculate the expected additive herbicidal effect of the mixtures of Compound 6 with Harmony® Extra (i.e. a 2:1 mixture by weight of thifensulfuron-methyl and tribenuron-methyl). Colby's Equation (Colby, S. R. “Calculating Synergistic and Antagonistic Responses of Herbicide Combinations,” Weeds, 15(1), pp 20-22 (1967)) calculates the expected additive effect of herbicidal mixtures, and for two active ingredients is of the form: Pa+b=Pa+Pb−(PaPb/100) wherein • Pa+b is the percentage effect of the mixture expected from additive contribution of the individual components, • Pa is the observed percentage effect of the first active ingredient at the same use rate as in the mixture, and • Pb is the observed percentage effect of the second active ingredient at the same use rate as in the mixture.
Seeds of test plants consisting of barnyardgrass (ECHCG; Echinochloa crus-galli (L.) Beauv.), blackgrass (ALOMY; Alopecurus myosuroides Huds.), Surinam grass (BRADC; Urochloa decumbens (Staph) R. D. Webster, previously named Brachiaria decumbens Stapf), cocklebur (XANST, Xanthium strumarium L.), corn (ZEAMD, Zea mays L. cv. ‘Pioneer 33G26’), large crabgrass (DIGSA, Digitaria sanguinalis (L.) Scop.), giant foxtail (SETFA, Setaria faberi Herrm.), lambsquarters (CHEAL, Chenopodium album L.), morningglory (IPOCO, Ipomoea coccinea L.), pigweed (AMARE, Amaranthus retroflexus L.), velvetleaf (ABUTH, Abutilon theophrasti Medik.) wheat (TRZAS, Triticum aestivum L. cv. ‘Recital’) and wild oat (AVEFA, Avena fatua L.) were planted in Redi-Earth® planting medium (Scotts Company, 14111 Scottslawn Road, Marysville, Ohio 43041) comprising spaghnum peat moss and vermiculite. Seeds of small-seeded species were planted about 1 cm deep; larger seeds were planted about 2.5 cm deep. Plants were grown in a greenhouse using supplemental lighting to maintain a photoperiod of about 14 hours; daytime and nighttime temperatures were about 24-30° C. and 22-25° C., respectively. Balanced fertilizer was applied through the watering system. The plants were grown for 7 to 11 days so that at time of treatment the plants ranged in height from 2 to 18 cm (1- to 4-leaf stage). Treatments consisted of Compounds 2 and 6 (technical material), atrazine (90DF), terbacil (Sinbar® 80DF), hexazinone (Velpar® 75WG), diuron (Karmex® 80WP) and paraquat (Gramoxone® Extra, 37%) alone and in combination, suspended or dissolved in an aqueous solvent comprising a nonionic surfactant and applied as a foliage spray using a volume of 541 L/ha. Each treatment was triply replicated. […] Treated plants and controls were maintained in the greenhouse and watered as needed with care to not wet the foliage for the first 24 hours after treatment. The effects on the plants 15 days after treatment were visually compared to untreated controls. Plant response ratings, listed in Table J as the means of the thee replicates, are based on a scale of 0 to 100 where 0 is no effect and 100 is complete control. Also listed in Table J are the expected effects for the mixtures calculated using Colby's Equation.

blackgrass (ALOMY) = test: as above; assay type: in vivo, Alopecurus myosuroides; design: key: 0 = no effect, 100 = complete control; conditions: applied alone
Source text: Colby's Equation was used to calculate the expected additive herbicidal effect of the mixtures of Compound 6 with Harmony® Extra (i.e. a 2:1 mixture by weight of thifensulfuron-methyl and tribenuron-methyl). […]
as §1, with “vermiculite.” for “vermiculite. Seeds of small-seeded species were planted about 1 cm deep; larger seeds were planted about 2.5 cm deep. Plants were grown in a greenhouse using supplemental lighting to maintain a photoperiod of about 14 hours; daytime and nighttime temperatures were about 24-30° C. and 22-25° C., respectively. Balanced fertilizer was applied through the watering system.”

pigweed = test: Test F pre-/postemergence herbicide test; assay type: in vivo, Amaranthus retroflexus
Source text: (§2) Seeds of plant species selected from annual blugrass (Poa annua L.), blackgrass (Alopecurus myosuroides Huds.), catchweed bedstraw (Gallium aparine L.), common chickweed (Stellaria media (L.) Vill./Cyr.), downy bromegrass (Bromus tectorum L.), green foxtail (Setaria viridis (L.) Beauv.), Italian ryegrass (Lolium multiflorum Lam.), kochia (Kochia scoparia (L.). Schrad.), lambsquarters (Chenopodium album L.), littleseed canarygrass (Phalaris minor Retz.), pigweed (Amaranthus retroflexus L.), Russian thistle (Salsola kali L. ssp. Ruthenica (Iljin) Soo), wild buckwheat (Polygonum convolvulus L.), wild mustard (Sinapis arvensis L.), wild oat (Avena fatua L.), windgrass (Apera spica-venti (L.) Beauv.), winter barley (Hordeum vulgare L.), and wheat (Triticum aestivum L.) were planted and treated preemergence with test chemicals formulated in a non-phytotoxic solvent mixture which included a surfactant.
(§3) At the same time, plants selected from these crop and weed species were treated with postemergence applications of some of the test chemicals formulated in the same manner. Plants ranged in height from 2 to 18 cm (1- to 4-leaf stage) for postemergence treatments. Treated plants and controls were maintained in a greenhouse for 12 to 14 days, after which time all species were compared to controls and visually evaluated. Plant response ratings, summarized in Table F, are based on a scale of 0 to 100 where 0 is no effect and 100 is complete control. A dash (-) response means no test result.

Italian ryegrass = test: Test F pre-/postemergence herbicide test; assay type: in vivo, Lolium multiflorum
Source text: as §2, §3

blackgrass = test: Test F pre-/postemergence herbicide test; assay type: in vivo, Alopecurus myosuroides
Source text: as §2, §3

downy bromegrass = test: Test F pre-/postemergence herbicide test; assay type: in vivo, Bromus tectorum
Source text: as §2, §3

CCn1nc(C(C)(C)C)cc1C(=O)Nc1cc(C(=O)N(C)C)ccc1F [Compound 6, N-[5-[(dimethylamino)carbonyl]-2-fluorophenyl]-3-(1,1-dimethylethyl)-1-ethyl-1H-pyrazole-5-carboxamide]
SETFA Obsd. (giant foxtail (SETFA); 62 g a.i./ha): 15 | SETFA Obsd. (giant foxtail (SETFA); 125 g a.i./ha): 33 | IPOCO Obsd. (morningglory (IPOCO); 62 g a.i./ha): 22 | IPOCO Obsd. (morningglory (IPOCO); 125 g a.i./ha): 28 | BRADC Obsd. (Surinam grass (BRADC); 62 g a.i./ha): 15 | BRADC Obsd. (Surinam grass (BRADC); 125 g a.i./ha): 40 | observed effect of mixture compared with additive effect expected from Colby's Equation (Surinam grass (BRADC); mixture with diuron): greater than additive | observed effect of mixture compared with additive effect expected from Colby's Equation (Surinam grass (BRADC); mixture with diuron, listed as compound 6): synergistic activity | observed effect of mixture compared with additive effect expected from Colby's Equation (Surinam grass (BRADC); mixture with hexazinone): greater than additive | observed effect of mixture compared with additive effect expected from Colby's Equation (Surinam grass (BRADC); mixture with hexazinone, listed as compound 6): synergistic activity | observed effect of mixture compared with additive effect expected from Colby's Equation (Surinam grass (BRADC); mixture with terbacil): greater than additive | ALOMY Obsd. (blackgrass (ALOMY); 62 g a.i./ha): 18 | ALOMY Obsd. (blackgrass (ALOMY); 125 g a.i./ha): 33

CCn1nc(C(C)(C)C)cc1C(=O)Nc1cc(C(=O)OC(C)C)c(F)cc1F [Compound 248]
Plant response rating (0-100), Pigweed (pigweed; Postemergence, 31 g ai/ha): 65 | Plant response rating (0-100), Pigweed (pigweed; Postemergence, 62 g ai/ha): 65 | Plant response rating (0-100), Pigweed (pigweed; Postemergence, 125 g ai/ha): 70 | Plant response rating (0-100), Pigweed (pigweed; Postemergence, 250 g ai/ha): 70 | Plant response rating (0-100), Pigweed (pigweed; Preemergence, 31 g ai/ha): 70 | Plant response rating (0-100), Pigweed (pigweed; Preemergence, 62 g ai/ha): 75 | Plant response rating (0-100), Pigweed (pigweed; Preemergence, 125 g ai/ha): 95 | Plant response rating (0-100), Pigweed (pigweed; Preemergence, 250 g ai/ha): 95 | Plant response rating (0-100), Ryegrass, Italian (Italian ryegrass; Postemergence, 31 g ai/ha): 45 | Plant response rating (0-100), Ryegrass, Italian (Italian ryegrass; Postemergence, 62 g ai/ha): 55 | Plant response rating (0-100), Ryegrass, Italian (Italian ryegrass; Postemergence, 125 g ai/ha): 60 | Plant response rating (0-100), Ryegrass, Italian (Italian ryegrass; Postemergence, 250 g ai/ha): 65 | Plant response rating (0-100), Ryegrass, Italian (Italian ryegrass; Preemergence, 31 g ai/ha): 30 | Plant response rating (0-100), Ryegrass, Italian (Italian ryegrass; Preemergence, 62 g ai/ha): 50 | Plant response rating (0-100), Ryegrass, Italian (Italian ryegrass; Preemergence, 125 g ai/ha): 50 | Plant response rating (0-100), Ryegrass, Italian (Italian ryegrass; Preemergence, 250 g ai/ha): 60 | Plant response rating (0-100), Blackgrass (blackgrass; Postemergence, 31 g ai/ha): 45 | Plant response rating (0-100), Blackgrass (blackgrass; Postemergence, 62 g ai/ha): 50 | Plant response rating (0-100), Blackgrass (blackgrass; Postemergence, 125 g ai/ha): 60 | Plant response rating (0-100), Blackgrass (blackgrass; Postemergence, 250 g ai/ha): 60 | Plant response rating (0-100), Blackgrass (blackgrass; Preemergence, 31 g ai/ha): 50 | Plant response rating (0-100), Blackgrass (blackgrass; Preemergence, 62 g ai/ha): 50 | Plant response rating (0-100), Blackgrass (blackgrass; Preemergence, 125 g ai/ha): 65 | Plant response rating (0-100), Blackgrass (blackgrass; Preemergence, 250 g ai/ha): 65 | Plant response rating (0-100), Bromegrass, Downy (downy bromegrass; Postemergence, 31 g ai/ha): 40 | Plant response rating (0-100), Bromegrass, Downy (downy bromegrass; Postemergence, 62 g ai/ha): 40 | Plant response rating (0-100), Bromegrass, Downy (downy bromegrass; Postemergence, 125 g ai/ha): 40 | Plant response rating (0-100), Bromegrass, Downy (downy bromegrass; Postemergence, 250 g ai/ha): 40 | Plant response rating (0-100), Bromegrass, Downy (downy bromegrass; Preemergence, 31 g ai/ha): 35 | Plant response rating (0-100), Bromegrass, Downy (downy bromegrass; Preemergence, 62 g ai/ha): 45 | Plant response rating (0-100), Bromegrass, Downy (downy bromegrass; Preemergence, 125 g ai/ha): 50 | Plant response rating (0-100), Bromegrass, Downy (downy bromegrass; Preemergence, 250 g ai/ha): 65
